The values that follow come from patent US8609591B2, “Herbicidal composition” (Ishihara Sangyo Kaisha, Ltd., priority 2010, dated 2013).

By inhibition is commonly meant the change of the read-out against control, counted positive when it falls.

The test system of assay [1] is barnyardgrass (Echinochloa crus-galli L.). As to the kind of experiment: Foliar treatment pot test, growth inhibition rate visually observed. The format is in vivo. As to conditions: for inhibition at 18.75 g/ha / inhibition at 37.5 g/ha: 8 DAT. How it is done:
(§1) Upland field soil was put into a 1/1,000,000 hectare pot, and seeds of various plants (barnyardgrass (Echinochloa crus-galli L.) and velvetleaf (Abutilon theophrasti MEDIC.) were sown. When the respective plants reached predetermined leaf stage, herbicidal compositions in predetermined amounts were diluted with water in an amount corresponding to 300 L/ha and applied for foliar treatment by a small sprayer.
(§2) On the 8 to 14 days after treatment (DAT), the state of growth of the respective plants was visually observed to determine the growth inhibition rate (measured value) in accordance with the following evaluation standard. Further, in accordance with the Colby's formula, the growth inhibition rate (calculated value) was calculated. In Tables, with respect to the benzoylpyrazole compound represented by the formula (I), Compound Nos. in Table 1 are described, and with respect to other compounds, common names are described. […]

Assay [2] concerns velvetleaf (Abutilon theophrasti MEDIC.). The description is as above. In kind it is in vivo. As to conditions: for inhibition at 18.75 g/ha / inhibition at 37.5 g/ha: 8 DAT. The procedure:
as §1, §2

Where [3] appears, read: 192 h, read-out: Growth inhibition rate (%) of barnyardgrass, Measured value.
The mark [4] stands for this setting: 192 h, read-out: Growth inhibition rate (%) of velvetleaf, Measured value.
Setting [5] is: 192 h, 2.8 to 3.4 leaf stage, foliar treatment, Table 2-5, read-out: Growth inhibition rate (%) of barnyardgrass, Measured value.
The mark [6] stands for this setting: 192 h, 2.8 to 3.4 leaf stage, foliar treatment, read-out: Growth inhibition rate (%) of barnyardgrass, Measured value.
Where [7] appears, read: 192 h, 3.6 to 4.5 leaf stage, foliar treatment, Table 2-3, read-out: Growth inhibition rate (%) of barnyardgrass, Measured value.
Setting [8] is: 192 h, 3.6 to 4.5 leaf stage, foliar treatment, Table 2-10, read-out: Growth inhibition rate (%) of barnyardgrass, Measured value.
Where [9] appears, read: 192 h, 3.6 to 4.5 leaf stage, foliar treatment, Table 2-12, read-out: Growth inhibition rate (%) of barnyardgrass, Measured value.
Where [10] appears, read: 192 h, 1.8 to 2.4 leaf stage, foliar treatment, Table 2-2, read-out: Growth inhibition rate (%) of velvetleaf, Measured value.
[11] abbreviates: 192 h, 1.8 to 2.4 leaf stage, foliar treatment, Table 2-6, read-out: Growth inhibition rate (%) of velvetleaf, Measured value.
[12] abbreviates: 192 h, 2.6 to 3.2 leaf stage, foliar treatment, Table 2-4, read-out: Growth inhibition rate (%) of velvetleaf, Measured value.
[13] abbreviates: 192 h, 2.6 to 3.2 leaf stage, foliar treatment, Table 2-11, read-out: Growth inhibition rate (%) of velvetleaf, Measured value.
The mark [14] stands for this setting: 192 h, 2.6 to 3.2 leaf stage, foliar treatment, Table 2-13, read-out: Growth inhibition rate (%) of velvetleaf, Measured value.

Read-outs that look alike come from different tables or passages of the source.

`Cc1c(C(=O)c2cnn(C)c2O)ccc(S(C)(=O)=O)c1C1=NOCC1` [Topramezone]: in assay [1] (setting [3]), the inhibition at 7 g/ha is 40% and the inhibition at 15 g/ha is 40%. In assay [2] (setting [4]), the inhibition at 7 g/ha worked out at 30% and the inhibition at 15 g/ha stood at 30%.

As to `CS(=O)(=O)c1ccc(C(=O)C2C(=O)CCCC2=O)c(Cl)c1` [Sulcotrione], in assay [1] (setting [3]), the inhibition at 75 g/ha stood at 40% and the inhibition at 150 g/ha amounted to 45%. Besides, in assay [2] (setting [4]), the inhibition at 75 g/ha was determined as 30% and the inhibition at 150 g/ha worked out at 30%.

On to `CC(C)c1nn(C(=O)NC(C)(C)C)c(=O)n1N` [Amicarbazone], for which the inhibition at 18.75 g/ha in assay [1] (setting [5]) came to 30%; in assay [1] (setting [6]), 30%; in assay [1] (setting [7]), 20%; in assay [1] (setting [8]) it was 20%; in assay [1] (setting [9]), 20%; in assay [2] (setting [10]) it was 40%. In addition, the inhibition at 18.75 g/ha came out at 40% in assay [2] (setting [11]), 50% in assay [2] (setting [12]), 50% in assay [2] (setting [13]) and 50% in assay [2] (setting [14]). The inhibition at 37.5 g/ha in assay [1] (setting [5]) was found to be 50%; in assay [1] (setting [6]), 50%; in assay [1] (setting [7]), 25%; in assay [1] (setting [8]), 25%; in assay [1] (setting [9]) it was 25%; in assay [2] (setting [10]), 45%. The inhibition at 37.5 g/ha in assay [2] (setting [11]) was 45%; in assay [2] (setting [12]), 60%; in assay [2] (setting [13]), 60%; in assay [2] (setting [14]), 60%. For the same compound, the inhibition at 75 g/ha in assay [1] (264 h, 75 g/ha, 3.2 to 4.1 leaf stage, 11 DAT, foliar treatment, read-out: Growth inhibition rate (%) of barnyardgrass, Measured value) amounted to 40%; in assay [1] (336 h, 75 g/ha, 4.2 to 5.3 leaf stage, 14 DAT, foliar treatment, read-out: Growth inhibition rate (%) of barnyardgrass, Measured value), 15%; in assay [2] (336 h, 75 g/ha, 4 to 4.5 leaf stage, 14 DAT, foliar treatment, read-out: Growth inhibition rate (%) of velvetleaf, Measured value), 55%. The inhibition at 150 g/ha in assay [1] (264 h, 150 g/ha, 3.2 to 4.1 leaf stage, 11 DAT, foliar treatment, read-out: Growth inhibition rate (%) of barnyardgrass, Measured value) is 73%. Besides, the inhibition at 30 g/ha turned out to be 0% in assay [1] (336 h, 30 g/ha, 4.2 to 5.3 leaf stage, 14 DAT, foliar treatment, read-out: Growth inhibition rate (%) of barnyardgrass, Measured value) and 35% in assay [2] (336 h, 30 g/ha, 4 to 4.5 leaf stage, 14 DAT, foliar treatment, read-out: Growth inhibition rate (%) of velvetleaf, Measured value). Also, the inhibition at 50 g/ha in assay [1] (336 h, 50 g/ha, 4.2 to 5.3 leaf stage, 14 DAT, foliar treatment, read-out: Growth inhibition rate (%) of barnyardgrass, Measured value) came out at 0%; in assay [2] (336 h, 50 g/ha, 4 to 4.5 leaf stage, 14 DAT, foliar treatment, read-out: Growth inhibition rate (%) of velvetleaf, Measured value), 55%.
